Patent publication US10562843B2 (The United States of America, as represented by the …, priority 2006, dated 2020)
Counter-ions that a name gives are not always drawn. Like-named read-outs stand apart in the source and are kept apart here.

Key:
[1] = system: single ventricular myocytes; test: Cardiomyocyte contractility, single dose, with and without ICI 118,551; format: cell-based
Protocol: In these studies, the contraction amplitude indexed by electrical pacing induced shortening of cell length was measured in single ventricular myocytes before and after exposure to a single dose of the test compounds.

human β2-AR = human β2-AR (Homo sapiens, UniProt P07550)
[2] = IV 5 mg/kg; for Average plasma concentration: average of rats
[3] = system: freshly isolated adult rat cardiomyocytes; test: Cardiomyocyte contractility, dose-response; format: cell-based; details: for maximum contractile response: 10^−8 to 10^−5 M; for EC50: contractility dose-response
Protocol: All studies were performed within 8 hours of cell isolation.
The cells were placed on the stage of an inverted microscope (Zeiss model IM-35, Zeiss, Thornwood, N.Y.), perfused with the HEPES-buffered solution at a flow rate of 1.8 mL/minutes, and electrically stimulated at 0.5 Hz at 23° C. Cell length was monitored by an optical edge-tracking method using a photodiode array (Model 1024 SAQ, Reticon, Boston, Mass.) with a 3 ms time resolution. Cell contraction was measured by the percent shortening of cell length following electrical stimulation.

in vivo = details: male, Sprague-Dawley, rat, plasma, iv, 5 mg/kg
[4] = Average plasma concentration, average of rats, IV 5 mg/kg
[5] = Individual plasma concentration, individual rat, IV 5 mg/kg

human β2-AR, sequence (P07550 whole entry): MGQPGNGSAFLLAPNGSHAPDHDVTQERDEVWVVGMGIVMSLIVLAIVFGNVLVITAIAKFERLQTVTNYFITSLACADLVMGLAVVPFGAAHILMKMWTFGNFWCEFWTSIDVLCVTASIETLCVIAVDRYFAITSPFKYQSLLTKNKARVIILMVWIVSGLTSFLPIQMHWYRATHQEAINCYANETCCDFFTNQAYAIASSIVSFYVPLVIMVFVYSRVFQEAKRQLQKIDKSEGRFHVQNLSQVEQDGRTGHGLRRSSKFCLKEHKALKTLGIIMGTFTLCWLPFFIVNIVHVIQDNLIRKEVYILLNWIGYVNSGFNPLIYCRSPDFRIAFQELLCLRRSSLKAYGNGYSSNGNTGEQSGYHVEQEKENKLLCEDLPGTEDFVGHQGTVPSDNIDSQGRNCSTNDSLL

## C[C@@H](Cc1cccc2ccccc12)NC[C@H](O)c1cc(O)cc(O)c1.O=C(O)/C=C/C(=O)O [(R,S)-5, (R,S)-(−)-5-{1-hydroxy-2-[1-methyl-2-(1-naphthyl)ethylamino]ethyl}-1,3-benzenediol fumarate]
[1]
  concentration eliciting maximum effect: 0.1 µM
Human β2-AR
  Ki β1/Ki β2: 46
[2]; rat
  systemic exposure (AUC) and clearance compared to (R,R)-fenoterol: significantly higher systemic exposure (AUC) and longer clearance

## C[C@H](Cc1ccc(O)cc1)NC[C@H](O)c1cc(O)cc(O)c1 [(R,R)-1, (R,R)-(−)-Fenoterol]
[3]
  maximum contractile response: 306±11.8 % resting cell length
  EC50: −7.1±0.2 log [M]
[2]; 5 min
  Average plasma concentration: 1.34 µg/mL
[2]; 15 min
  Average plasma concentration: 0.36 µg/mL
[2]; 30 min
  Average plasma concentration: 0.34 µg/mL
[2]; 60 min
  Average plasma concentration: 0.05 µg/mL
[2]; 120 min
  Average plasma concentration: 0.02 µg/mL
[2]; 240 min
  Average plasma concentration: 0.01 µg/mL
[2]; 300 min
  Average plasma concentration: 0.005 µg/mL
[2]; 360 min
  Average plasma concentration: 0.06 µg/mL
[2]; rat, two-compartment open model
  AUC: 29.6861 µg·min/mL

## C[C@H](Cc1cccc2ccccc12)NC[C@H](O)c1cc(O)cc(O)c1.O=C(O)/C=C/C(=O)O [(R,R)-5, (R,R)-(−)-5-{1-hydroxy-2-[1-methyl-2-(1-naphthyl)ethylamino]ethyl}-1,3-benzenediol fumarate]
[1]
  concentration eliciting maximum effect: 0.1 µM
Human β2-AR
  Ki β1/Ki β2: 14

## C[C@@H](Cc1ccc(O)cc1)NC[C@@H](O)c1cc(O)cc(O)c1 [(S,S)-1, (S,S)-(+)-Fenoterol]
[1]; single dose, ICI 118,551 10^−7 mol/L
  contractile response: no observed pharmacological effect
[3]
  inotropic effect: only a minor positive inotropic effect

## CC(Cc1ccc(O)cc1)NCC(O)c1ccc(O)c(O)c1 (racemic) [(±)-fenoterol, 5-[1-hydroxy-2[[2-(4-hydroxyphenyl)-1-methylethyl]-amino]ethyl]1,2-benzenediol, reference compound]
[3]
  maximum contractile response: 265±11.6 % resting cell length
[3]; Rattus norvegicus, Cardiomyocyte, read-out: EC50 (converted)
  EC50: 100 nM

## C[C@H](Cc1cccc2ccccc12)NC[C@@H](O)c1cc(O)cc(O)c1.O=C(O)/C=C/C(=O)O (racemic) [(S,R)-5, (S,R)-(+)-5-{1-hydroxy-2-[1-methyl-2-(1-naphthyl)ethylamino]ethyl}-1,3-benzenediol fumarate]
Human β2-AR
  Ki β1/Ki β2: 19

## COc1ccc(C[C@@H](C)NC[C@H](O)c2cc(O)cc(O)c2)cc1 [(R,R)-2, (R,R)-(−)-1-p-Methoxyphenyl-2-(β-3′,5′-dihydroxy-phenyl-β-oxy)ethylamino-propane Fumarate]
In vivo
  AUC: 1600 ng·h/mL
  Vd: 2.19 L
  clearance: 15.4 mL/min
  half-life: 13.2 min
In vivo; [4]
  concentration at 5 min: 2120 ng/mL
  concentration at 15 min: 580 ng/mL
  concentration at 30 min: 410 ng/mL
  concentration at 60 min: 260 ng/mL
  concentration at 120 min: 170 ng/mL
  concentration at 300 min: 70 ng/mL
  concentration at 360 min: 60 ng/mL
In vivo; Average plasma concentration, average of rats, IV 5 mg/kg, 240 min
  concentration at 240 min: 120 ng/mL
In vivo; [5]
  concentration at 5 min: 1940 ng/mL
  concentration at 15 min: 480 ng/mL
  concentration at 30 min: 310 ng/mL
  concentration at 60 min: 230 ng/mL
  concentration at 120 min: 140 ng/mL
  concentration at 300 min: 60 ng/mL
  concentration at 360 min: 50 ng/mL
[2]; rat
  systemic exposure (AUC) and clearance compared to (R,R)-fenoterol: significantly higher systemic exposure (AUC) and longer clearance
